According to patent US10159640B2, “Prebiotic oral care compositions containing amino acids” (COLGATE-PALMOLIVE COMPANY, priority 2013, dated 2018):

Tests used:
Assay in all cases: Extent of growth, growth curves in BHI
Type in all cases: cell-based
Settings in all cases: control = 1
Streptococcus mutans = system: Streptococcus mutans
Protocol: (§1) The extent of growth of the tested bacteria in response to selected compounds (Met-Pro, Phe-Glu) was investigated by setting up growth curves in a nutritionally rich medium (brain heart infusion broth (BHI), Oxoid), over 48 hours. Late exponential growth phase liquid cultures were prepared by transferring the respective bacterium from blood agar plates to BHI and overnight incubation at 37° C. in an anaerobic atmosphere for A. viscosus, V. parvula, F. nucleatum, P. gingivalis, P. intermedia, T. forsythia, A. naeslundii, and C. sputigena, and in a 5% CO2 environment for S. salivarius, S. sanguinis, S. mitis, A. actinomycetemcomitans, S. mutans, S. sobrinus and S. gordonii. Overnight cultures were transferred to BHI and adjusted to a concentration of 1×10^7 CFU/ml (colony forming units per ml) by measuring the optical density at 600 nm (OD600) (BioRad SmartSpec 3000). For each strain, 200 μl of the bacterial suspension was added to a 96-well plate containing 20 μl of the respective di-peptides. Final concentrations of the di-peptides were set to 5, 10, 20 and 25 μmol/ml. […] Plates were incubated as previously described.
(§2) For each combination of bacterium/dipeptide, and for each of their respective controls (i.e. the particular bacterium in the nutritionally rich medium with no dipeptide), the optical density was measured at 630 nm (OD630) at 0 h, 24 h and 48 h (Thermo Scientific Multiskan Ascent). Additionally, the OD630 for combinations of bacterium/dipeptide grown in a 5% CO2 environment were also measured every hour between 0 h and 9 h.
(§3) The experiment was carried out on three different days (thus providing 3 biological replicas) and on each day the experiment was carried out in quadruple (thus providing 4 technical replicas) for each combination of bacterium with dipeptide and for each control. For each day and for each combination, the average (mean) of the values obtained (as detailed above) for the four technical replicas was calculated to provide a single value for each combination on each day. The values shown in Tables 5 to 6, below, are the average (mean) of the three single values obtained for each combination of bacterium with dipeptide.

Porphyromonas gingivalis = system: Porphyromonas gingivalis
Protocol: as §1, §2, §3

Streptococcus sanguinis = system: Streptococcus sanguinis
Protocol: as §1, §2, §3

Prevotella intermedia = system: Prevotella intermedia
Protocol: as §1, §2, §3

Capnocytophaga sputigena = system: Capnocytophaga sputigena
Protocol: as §1, §2, §3

Tannerella forsythia = system: Tannerella forsythia
Protocol: as §1, §2, §3

Actinomyces viscosus = system: Actinomyces viscosus
Protocol: as §1, §2, §3

[1] = system: Aggregatibacter actinomycetemcomitans
Protocol: as §1, §2, §3

Streptococcus sobrinus = system: Streptococcus sobrinus
Protocol: as §1, §2, §3

Streptococcus gordonii = system: Streptococcus gordonii
Protocol: as §1, §2, §3

Veillonella parvula = system: Veillonella parvula
Protocol: as §1, §2, §3

Streptococcus salivarius = system: Streptococcus salivarius
Protocol: as §1, §2, §3

Streptococcus mitis = system: Streptococcus mitis
Protocol: as §1, §2, §3

Actinomyces naeslundii = system: Actinomyces naeslundii
Protocol: as §1, §2, §3

Fusobacterium nucleatum = system: Fusobacterium nucleatum
Protocol: as §1, §2, §3

With Met-Pro the “extent of growth: maximal OD630 over 48 hr divided by maximal OD of control” value (Streptococcus mutans; 5 μmol/ml) was 0.9473, the “extent of growth: maximal OD630 over 48 hr divided by maximal OD of control” value (Streptococcus mutans; 10 μmol/ml) was 0.9083 and the “extent of growth: maximal OD630 over 48 hr divided by maximal OD of control” value (Streptococcus mutans; 20 μmol/ml) was 0.7929. The “extent of growth: maximal OD630 over 48 hr divided by maximal OD of control” value (Streptococcus mutans; 25 μmol/ml) was 0.5618, the “extent of growth: maximal OD630 over 48 hr divided by maximal OD of control” value (Porphyromonas gingivalis; 5 μmol/ml) was 0.8702 and the “extent of growth: maximal OD630 over 48 hr divided by maximal OD of control” value (Porphyromonas gingivalis; 10 μmol/ml) was 0.8266. The “extent of growth: maximal OD630 over 48 hr divided by maximal OD of control” value (Porphyromonas gingivalis; 20 μmol/ml) was 0.7021, the “extent of growth: maximal OD630 over 48 hr divided by maximal OD of control” value (Porphyromonas gingivalis; 25 μmol/ml) was 0.4276 and the “extent of growth: maximal OD630 over 48 hr divided by maximal OD of control” value (Streptococcus sanguinis; 5 μmol/ml) was 0.9059. For the same substance, the “extent of growth: maximal OD630 over 48 hr divided by maximal OD of control” value (Streptococcus sanguinis; 10 μmol/ml) was 0.9070, the “extent of growth: maximal OD630 over 48 hr divided by maximal OD of control” value (Streptococcus sanguinis; 20 μmol/ml) was 0.6852 and the “extent of growth: maximal OD630 over 48 hr divided by maximal OD of control” value (Streptococcus sanguinis; 25 μmol/ml) was 0.5011. The “extent of growth: maximal OD630 over 48 hr divided by maximal OD of control” value (Prevotella intermedia; 5 μmol/ml) was 0.9177, the “extent of growth: maximal OD630 over 48 hr divided by maximal OD of control” value (Prevotella intermedia; 10 μmol/ml) was 0.9742 and the “extent of growth: maximal OD630 over 48 hr divided by maximal OD of control” value (Prevotella intermedia; 20 μmol/ml) was 0.3193. The “extent of growth: maximal OD630 over 48 hr divided by maximal OD of control” value (Prevotella intermedia; 25 μmol/ml) was 0.2336, the “extent of growth: maximal OD630 over 48 hr divided by maximal OD of control” value (Capnocytophaga sputigena; 5 μmol/ml) was 0.9618 and the “extent of growth: maximal OD630 over 48 hr divided by maximal OD of control” value (Capnocytophaga sputigena; 10 μmol/ml) was 3.5579. The “extent of growth: maximal OD630 over 48 hr divided by maximal OD of control” value (Capnocytophaga sputigena; 20 μmol/ml) was 2.9796, the “extent of growth: maximal OD630 over 48 hr divided by maximal OD of control” value (Capnocytophaga sputigena; 25 μmol/ml) was 0.9701 and the “extent of growth: maximal OD630 over 48 hr divided by maximal OD of control” value (Tannerella forsythia; 5 μmol/ml) was 0.9244. For the same substance, the “extent of growth: maximal OD630 over 48 hr divided by maximal OD of control” value (Tannerella forsythia; 10 μmol/ml) was 0.9743, the “extent of growth: maximal OD630 over 48 hr divided by maximal OD of control” value (Tannerella forsythia; 20 μmol/ml) was 0.7533 and the “extent of growth: maximal OD630 over 48 hr divided by maximal OD of control” value (Tannerella forsythia; 25 μmol/ml) was 0.7018. For the same substance, the “extent of growth: maximal OD630 over 48 hr divided by maximal OD of control” value (Actinomyces viscosus; 5 μmol/ml) was 0.4873, the “extent of growth: maximal OD630 over 48 hr divided by maximal OD of control” value (Actinomyces viscosus; 10 μmol/ml) was 0.4102 and the “extent of growth: maximal OD630 over 48 hr divided by maximal OD of control” value (Actinomyces viscosus; 20 μmol/ml) was 0.3154. For the same substance, the “extent of growth: maximal OD630 over 48 hr divided by maximal OD of control” value (Actinomyces viscosus; 25 μmol/ml) was 0.2498, the “extent of growth: maximal OD630 over 48 hr divided by maximal OD of control” value ([1]; 5 μmol/ml) was 0.7454 and the “extent of growth: maximal OD630 over 48 hr divided by maximal OD of control” value ([1]; 10 μmol/ml) was 0.6321. The “extent of growth: maximal OD630 over 48 hr divided by maximal OD of control” value ([1]; 20 μmol/ml) was 0.3282, the “extent of growth: maximal OD630 over 48 hr divided by maximal OD of control” value ([1]; 25 μmol/ml) was 0.2297 and the “extent of growth: maximal OD630 over 48 hr divided by maximal OD of control” value (Streptococcus sobrinus; 5 μmol/ml) was 0.9294. The “extent of growth: maximal OD630 over 48 hr divided by maximal OD of control” value (Streptococcus sobrinus; 10 μmol/ml) was 1.0301, the “extent of growth: maximal OD630 over 48 hr divided by maximal OD of control” value (Streptococcus sobrinus; 20 μmol/ml) was 1.0167 and the “extent of growth: maximal OD630 over 48 hr divided by maximal OD of control” value (Streptococcus sobrinus; 25 μmol/ml) was 0.8547. The “extent of growth: maximal OD630 over 48 hr divided by maximal OD of control” value (Streptococcus gordonii; 5 μmol/ml) was 0.9757, the “extent of growth: maximal OD630 over 48 hr divided by maximal OD of control” value (Streptococcus gordonii; 10 μmol/ml) was 0.9528 and the “extent of growth: maximal OD630 over 48 hr divided by maximal OD of control” value (Streptococcus gordonii; 20 μmol/ml) was 0.7735. For the same substance, the “extent of growth: maximal OD630 over 48 hr divided by maximal OD of control” value (Streptococcus gordonii; 25 μmol/ml) was 0.6853, the “extent of growth: maximal OD630 over 48 hr divided by maximal OD of control” value (Veillonella parvula; 5 μmol/ml) was 0.9980 and the “extent of growth: maximal OD630 over 48 hr divided by maximal OD of control” value (Veillonella parvula; 10 μmol/ml) was 0.9808. For the same substance, the “extent of growth: maximal OD630 over 48 hr divided by maximal OD of control” value (Veillonella parvula; 20 μmol/ml) was 0.9516, the “extent of growth: maximal OD630 over 48 hr divided by maximal OD of control” value (Veillonella parvula; 25 μmol/ml) was 0.9671 and the “extent of growth: maximal OD630 over 48 hr divided by maximal OD of control” value (Streptococcus salivarius; 5 μmol/ml) was 0.9729. The “extent of growth: maximal OD630 over 48 hr divided by maximal OD of control” value (Streptococcus salivarius; 10 μmol/ml) was 1.0153, the “extent of growth: maximal OD630 over 48 hr divided by maximal OD of control” value (Streptococcus salivarius; 20 μmol/ml) was 0.7572 and the “extent of growth: maximal OD630 over 48 hr divided by maximal OD of control” value (Streptococcus salivarius; 25 μmol/ml) was 0.5262. For the same substance, the “extent of growth: maximal OD630 over 48 hr divided by maximal OD of control” value (Streptococcus mitis; 5 μmol/ml) was 0.9134, the “extent of growth: maximal OD630 over 48 hr divided by maximal OD of control” value (Streptococcus mitis; 10 μmol/ml) was 1.2332 and the “extent of growth: maximal OD630 over 48 hr divided by maximal OD of control” value (Streptococcus mitis; 20 μmol/ml) was 1.8922. The “extent of growth: maximal OD630 over 48 hr divided by maximal OD of control” value (Streptococcus mitis; 25 μmol/ml) was 1.7501, the “extent of growth: maximal OD630 over 48 hr divided by maximal OD of control” value (Actinomyces naeslundii; 5 μmol/ml) was 0.8420 and the “extent of growth: maximal OD630 over 48 hr divided by maximal OD of control” value (Actinomyces naeslundii; 10 μmol/ml) was 0.8131. For the same substance, the “extent of growth: maximal OD630 over 48 hr divided by maximal OD of control” value (Actinomyces naeslundii; 20 μmol/ml) was 0.5466, the “extent of growth: maximal OD630 over 48 hr divided by maximal OD of control” value (Actinomyces naeslundii; 25 μmol/ml) was 0.3360 and the “extent of growth: maximal OD630 over 48 hr divided by maximal OD of control” value (Fusobacterium nucleatum; 5 μmol/ml) was 0.8422. For the same substance, the “extent of growth: maximal OD630 over 48 hr divided by maximal OD of control” value (Fusobacterium nucleatum; 10 μmol/ml) was 0.8667, the “extent of growth: maximal OD630 over 48 hr divided by maximal OD of control” value (Fusobacterium nucleatum; 20 μmol/ml) was 0.7782 and the “extent of growth: maximal OD630 over 48 hr divided by maximal OD of control” value (Fusobacterium nucleatum; 25 μmol/ml) was 0.7273.
